Assay results as given in patent US10766864B2, “Morphinan derivatives for the treatment of neuropathic pain” (Nektar Therapeutics, priority 2015, dated 2020).
Where two headings read alike, the source gives them in different places.

Experiments:
NMDA receptor = test: Competitive radioligand binding at NMDA receptor ([3H] MK801), rat forebrain membranes; conditions: 0.2 nM [3H] MK801, reflects free base activity
mu opioid receptor (MOR) = mu opioid receptor (MOR) (Homo sapiens (Human), UniProt P35372); test: Competitive radioligand binding at MOR ([3H] Naloxone)
[1] = test system: rat formalin paw model of persistent pain; test: Automated formalin paw test, oral administration; assay type: in vivo; conditions: at at least one dosage between 10 mg/kg and 300 mg/kg (inclusive), in the presence of 1-aminobenzotriazole
Procedure: The in vivo efficacy of selected compounds following oral administration was measured using the rat formalin model of persistent pain. Test compounds were administered 30-60 minutes prior to injection of 5% formalin to the hind-paw of rats and paw movements were measured using the automated Nociception Analyzer (ANA Instrument; University of California, San Diego) for 60 minutes post-formalin. In some experiments, rats were pre-treated 16-22 hours priors to the experiment with the cytochrome-P450 inhibitor, 1-aminobenzotriazole (ABT), to assess the activity of compounds in the absence of significant quantities of metabolites. ED50 values (mg/kg) were calculated from non-linear regression analyses of the cumulative number of flinches in Phase II (10-60 mins) versus dose of test compounds.
In the rat formalin paw model of persistent pain, compounds 83, 113, 114 and 115 (described in Examples 83, 113, 114 and 115, respectively) were tested. In each case, the oral efficacy of the compounds was measured in the presence and absence of the cytochrome CYP-450 inhibitor, 1-aminobenzotriazole.

hMOR = hMOR (Homo sapiens (Human), UniProt P35372); test: cAMP accumulation assay (inhibition of forskolin-stimulated cAMP) in CHO-K1 cells stably expressing hMOR; assay type: cell-based
Procedure: Mu opioid agonist activity for selected compounds was determined by the inhibition of forskolin-stimulated cAMP accumulation following MOR activation in CHO-K1 cells stably expressing the hMOR. […] IC50 values were calculated from […] analysis of the concentration-response curves using Graph Pad Prizm.

[2] = Phase II clinical study; cited from earlier work
[3] = hMOR-expressing CHO-K1 cells, 10 μM forskolin, 60 minute incubation, read-out: MOR cAMP IC50
[4] = membranes from CHO-K1 cells expressing MOR, 2 nM [3H] Naloxone, reflects free base activity, read-out: MOR IC50

SMILES	IC50 (NMDA receptor)	IC50 (mu opioid receptor (MOR))	oral efficacy in Phase I and Phase II of the rat formalin paw model [1]	IC50 (hMOR)	IC50 (hMOR; [3])	IC50 (mu opioid receptor (MOR); [4])	reduction of neuropathic pain [2]	side effects [2]
COCCOCCN1CC[C@]23CCCC[C@H]2[C@H]1Cc1ccc(Nc2cccnc2)cc13 [Compound 83, 17-[2-(2-methoxyethoxy)ethyl]-N-(pyridin-3-yl)morphinan-3-amine]	1000 to 10000 nM	100 to 1000 nM	statistically significant efficacy					
CN1CC[C@]23CCCC[C@H]2[C@H]1Cc1ccc(Nc2cccnc2)cc13 [Compound 43, 17-methyl-N-(pyridin-3-yl)morphinan-3-amine]	0.1 to 100 nM	0.1 to 10 nM		0.1 to 10 nM				
CN1CC[C@]23CCCC[C@H]2[C@H]1Cc1cc2sc(N)nc2cc13 [Compound 115, (4aR,5R,11bR)-14-methyl-2,3,4,4a,5,6-hexahydro-1H-5,11b-(epiminoethano)phenanthro[3,2-d]thiazol-9-amine]	0.1 to 100 nM		statistically significant efficacy		10 to 100 nM	10 to 100 nM		
COCCN1CC[C@]23CCCC[C@H]2[C@H]1Cc1ccc(O)cc13 [Compound 113, 3-hydroxy-17-(2-methoxyethyl)morphinan]	100 to 1000 nM	0.1 to 10 nM	statistically significant efficacy	0.1 to 10 nM				
COCCNC(=O)Oc1ccc2c(c1)[C@@]13CCCC[C@H]1[C@@H](C2)N(C)CC3 [Compound 18, 17-methylmorphinan-3-yl (2-methoxyethyl)carbamate]	1000 to 10000 nM	100 to 1000 nM		100 to 1000 nM				
CN1CC[C@]23CCCC[C@H]2[C@H]1Cc1ccc(N)cc13 [Compound 114, 3-amino-17-morphinan]	100 to 1000 nM	100 to 1000 nM	statistically significant efficacy	100 to 1000 nM				
COCCOCCN1CC[C@]23CCCC[C@H]2[C@H]1Cc1ccc(O)cc13 [Compound 15, 17-[2-(2-methoxyethoxy)ethyl]morphinan-3-ol]	> 10000 nM	10 to 100 nM		10 to 100 nM				
COCCOCCOc1ccc(Nc2ccc3c(c2)[C@@]24CCCC[C@H]2[C@@H](C3)N(C)CC4)cc1 [Compound 36, N-{4-[2-(2-methoxyethoxy)ethoxy]phenyl}-17-methylmorphinan-3-amine]	1000 to 10000 nM				10 to 100 nM	10 to 100 nM		
CN1CC[C@]23CCCC[C@H]2[C@H]1Cc1ccc(-c2cn[nH]c2)cc13 [Compound 44, 17-methyl-3-(1H-pyrazol-4-yl)morphinan]	100 to 1000 nM	10 to 100 nM		10 to 100 nM				
CN1CC[C@]23CCCC[C@H]2[C@H]1Cc1ccc(O)cc13 [levorphanol, 17-Methylmorphinan-3-ol]							effective in reducing neuropathic pain	severe dose-limiting side effects
COCCOCCOCC(=O)Nc1ccc2c(c1)[C@@]13CCCC[C@H]1[C@@H](C2)N(C)CC3 [Compound 33, 2-[2-(2-methoxyethoxy)ethoxy]-N-(17-methylmorphinan-3-yl)acetamide]	> 10000 nM	100 to 1000 nM		100 to 1000 nM				
